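Grown in 96-well plates, cells were treated for 48 hours with each compound at five concentrations. Insufficient inhibition: endpoint recorded as highest concentration tested. GI50 marks 50% less growth. Definition used: TGI = concentration required for complete inhibition of growth.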 Bounds are passed on as bounds.

What all share (experiment): inhibition of tumour cell growth, NCI panel, 48 h
In experiment [1] the test system is SF-295 CNS.
The test system of experiment [2] is OVCAR-8 ovarian.
The test system of experiment [3] is MCF7 breast.
Experiment [4] has as its system SK-MEL-5 melanoma.
Experiment [5] concerns MALME-3M melanoma.
The subject of experiment [6] is NCI-H23 lung.
Experiment [7] relates to BT-549 breast.
The subject of experiment [8] is OVCAR-4 ovarian.
Experiment [9] has as its system RPMI-8226 leukemia.
Experiment [10] deals with SR leukemia.

With `COc1cc(C2C3=C(COC3=O)Nc3cc4c(cc32)OCO4)cc2c1OCO2` (stereo not drawn), the GI50 was 0.0299 µM in experiment [1]; 0.102 µM in [2]; 0.0393 µM in [3]; 0.101 µM in experiment [4]; above 100 µM in [5]; 0.0757 µM in [6]. The GI50 in [7] was 1.66 µM; in [8], 0.0982 µM; in experiment [9] it was 0.068 µM; in experiment [10], 0.0479 µM. Also, the TGI is above 100 µM in experiment [2]; above 100 µM in [3]; 0.374 µM in experiment [4]; above 100 µM in experiment [5]; above 100 µM in [7]; above 100 µM in [8]. Also, the TGI in experiment [9] and in experiment [10] was above 100 µM each time.

On to `Cn1c(C(C)(C)OC(=O)Oc2ccccc2)cnc1[N+](=O)[O-]`, for which the TGI in experiment [1], in experiment [2], in experiment [3], in [4], in [5] and in experiment [6] was above 100 µM in each case. Further, the TGI in [7] is above 100 µM; in experiment [8], above 100 µM; in experiment [9], 77.1 µM; in experiment [10] it was 51.7 µM.

On to `COc1cc2c(cc1O)C(c1cc(O)c(O)c(OC)c1)C(O)(C(=O)O)C(CO)C2O` (stereo not drawn), for which the TGI is above 100 µM in [1]; above 100 µM in experiment [2]; 42.5 µM in [3]; above 100 µM in experiment [4]; above 100 µM in experiment [5]; above 100 µM in experiment [6]. The TGI in experiment [7], in experiment [8], in experiment [9] and in experiment [10] was above 100 µM each time.

Turning to `CC(=O)c1ccc2c(c1)N(CCCN(C)C)c1ccccc1S2`, the GI50 is 11.9 µM in [1]; 17.7 µM in experiment [2]; 16.6 µM in experiment [3]; 13.2 µM in experiment [4]; 17.9 µM in [5]; 17.1 µM in experiment [6]. Moreover, the GI50 in experiment [7] is 12.7 µM; in experiment [8], 18.5 µM; in [9] it was 18 µM; in [10] it was 18.7 µM. Besides, the TGI in [1] stood at 25.5 µM; in experiment [2] it was 37.4 µM; in [3], 34.5 µM; in experiment [4] it was 26.2 µM; in experiment [5] it was 38.3 µM; in [6] it was 44.4 µM. Also, the TGI was determined as 25.8 µM in experiment [7], 65.2 µM in experiment [8], 43.3 µM in experiment [9] and 49.5 µM in experiment [10].

(Values after PubChem BioAssay (NCI).)
